Measurements as given in patent US20230172940A1, “METHODS OF EXTENDING LIFESPAN BY ADMINISTERING FERROPTOSIS INHIBITORS” (COLLABORATIVE MEDICINAL DEVELOPMENT, LLC, priority 2020, published 2023).
Structures can show the parent of a compound that is named as a salt.

Assays:
Format in all cases: in vivo, Caenorhabditis elegans
[1] = system: total glutathione; experiment: Quantification of total glutathione; details: for glutathione depletion induced by DEM: Day 4 animals; for age-dependent decrease in glutathione: treated from L4, assayed on Day 4 of adult life
Protocol: Measurement of total glutathione was based on established protocols and is based on a kinetic spectrophotometric assay using the reaction between GSH and 5^o5′-dithio-bis (2-nitrobenzoic acid) (DTNB) measured at 412 nm (Caito and Aschner^o 2015; Rahman et al.^o 2006). All reagents were freshly prepared prior to the assay and for each estimate 50 adults were collected in 200 μL of S-basal (Brenner^o 1974) in 1.7 ml microfuge tubes. Animals were washed twice in S-basal^o pelleted via centrifugation and total volume reduced to 20 μL. A 50 μL aliquot of Extraction Buffer was added then the samples were frozen in Liquid N2 and store at −80° C. until required. Extraction buffer consisted of 6 mg/mL 5-sulfosalicylic acid dehydrate^o 0.1% v/v Triton X-100 and Complete^o EDTA-free Proteinase inhibitor cocktail (Roche) in KPE buffer (0.1 M potassium phosphate buffer and 5 mM EDTA at pH 7.5).
Samples were homogenized with a Bioruptor Next Gen (Diagenode) bath sonicator^o set on HIGH and cooled to 4° C.^o using 10 cycles of 10 seconds ON and 10 seconds OFF. Supernatant was collected following a 14K×g spin at 4° C. Assays were performed in 96 well microplates (clear polystyrene^o flat-bottomed^o Greiner bio-one)^o in a total volume of 200 μL per well. To each well was added 50 μL of lysate supernatant^o 50 μL of milli-Q H2O and then 100 μL of GA buffer (NADPH 400 μM^o glutathione reductase 1 U/mL and 0.3 mM DTNB in KPE buffer diluent). Reactions were incubated for 1-2 min at room temperature and then absorbance measured at 412 nm for 10 min with 1 min interval using a Powerwave plate spectrophotometer (BioTek). The rate of change in absorbance per minute is linearly proportional to the total concentration of GSH. Total GSH in the samples was interpolated from using linear regression from a standard curve of known GSH concentrations (0 to 1 μM) run in tandem. In parallel^o the concentration of total protein per sample was also determined by a Bicinchoninic acid (BCA) assay (Pierce) using the manufacturers protocol. Total GSH estimates were then normalized for protein load thous accounting for any size differences between populations. Within experiment results are presented as relative glutathione levels^o where results are normalized to the mean of the starting population.

[2] = system: malondialdehyde (MDA); experiment: Lipid peroxidation: malondialdehyde (TBARS assay); details: for aged-related increase in MDA: aging at 25° C
Protocol: Measurement of malondialdehyde (MDA) was performed using a Thiobarbituric acid reactive substances (TBARS) assay kit (10009055^o Caymen Chemical) as per manufacturer instructions using reduced reaction volumes of 1 mL. For C. elegans samples with acute glutathione depletion^o Day 1 adults were treated with and without 20 mM DEM for 6 h at 25° C. prior to collection. For aging^o animals were aged at 25° C. and treated with Lip-1 or SIH as previously described. Replicate samples were collected^o washed twice in S-basal^o pelleted by centrifugation. Following removal of excess buffer samples (^˜40 μL) were frozen in liquid-N2 and stored at −80° C. until needed. Samples were then homogenized via a Bioruptor bath sonicator (Diagenode^o set on ‘high power’ with 10 cycles of 10 s pulses with a 10 s pause between pulses^o at 4° C.)^o then centrifuged at 21^o500×g at 4° C. for 30 min and the supernatant retained. The concentration of protein was determined using a BCA assay kit (Pierce) and equivalent aliquots of 20-25 μg total protein used for subsequent measurements.

[3] = system: DAF-16; experiment: DAF-16 localization (reporter strain TJ356); details: for DAF-16 nuclear translocation: 250 μM SIH, 200 μM Lip-1
Protocol: Wild type (strain N2)^o the temperature sensitive-sterile strain TJ1060: spe-9(hc88); fer-15(b26) and the DAF-16 reporter strain TJ356: zls356 [Pdaf-16::daf-16a/b::gfp+rol-6(su1006)] were obtained from the Caenorhabditis Genetics Center. The wild type strain was maintained at 20° C. on standard nematode growth media (NGM) and aged at 20° C. or 25° C. as required. TJ1060 was maintained at 16° C. and also aged at 20° C. or 25° C. as required. TJ1060 was predominately used to remove the inconvenience of progeny production and can be regarded as a proxy for wild type.
We considered whether the higher levels of glutathione in animals treated with SIH ( ) could reflect a hormetic response to sublethal oxidative stress, which has been described for SIH at low concentrations (10 μM) combining with the cellular labile iron pool within hepatocellular carcinoma cells in culture. […] To further discount possible off-target stress responses elicited by our interventions, we interrogated DAF-16 localization. Nuclear localization of the DAF-16 transcription factor is known to be an indicator of […], which occurs under stress conditions. […] Taken together, these findings argue against hormesis mediating the benefits of SIH or Lip-1 under these conditions in C. elegans.

O=C(N/N=C/c1ccccc1O)c1ccncc1 [SIH, Salicylaldehyde isonicotinoyl hydrazone]
glutathione depletion induced by DEM [1]: mitigated the glutathione depletion induced by DEM | age-dependent decrease in glutathione [1]: prevented the age-dependent decrease in glutathione | aged-related increase in MDA [2]: ameliorated | DAF-16 nuclear translocation [3]: Neither 250 μM SIH nor 200 μM Lip-1 induced DAF-16 nuclear translocation

CCOC(=O)/C=C\C(=O)OCC [DEM, Diethyl maleate]
depletion of glutathione ([1]; 10 mM DEM, 24-hour exposure, 4-day old adult worms): ≈ 50% | relative amounts of MDA ([2]; acute glutathione depletion by DEM exposure (20 mM, 6 h, Day 1 adults)): marked increase | DAF-16 nuclear localization ([3]; 10 mM DEM, positive control): did induce nuclear localization of DAF-16

Clc1cccc(CNC2=Nc3ccccc3NC23CCNCC3)c1 [Lip-1, N-[(3-chlorophenyl)methyl]-spiro[piperidine-4,2′(1′H)-quinoxalin]-3′-amine]
glutathione depletion induced by DEM [1]: did not prevent the fall in glutathione | age-dependent decrease in glutathione [1]: did not prevent the fall in glutathione | aged-related increase in MDA [2]: ameliorated | DAF-16 nuclear translocation [3]: Neither 250 μM SIH nor 200 μM Lip-1 induced DAF-16 nuclear translocation
